Molecules are shown by their SMILES.

Usually EC50 stands for the concentration giving half of the maximal effect.

What all share (type): cell-based
In assay [1] the target is T1, long form of human GPR120 (Homo sapiens, UniProt Q5NUL3).
T1 construct: host or cells: PathHunter CHO-K1 GPR120 β-Arrestin Cell Line
The assay is described as follows: Human GPR120 DiscoveRx PathHunter β-Arrestin assay, Procedure β-arrestin A. Conditions: PathHunter CHO-K1 GPR120 β-Arrestin cell line, 3000 cells per well. The source says: The binding of an agonist (medium/long chain fatty acids or small molecule agonists) to the G-protein-coupled receptor GPR120 activates phospholipase C, leading to release of intracellular Ca^+2 through the generation of inositol 1,4,5-trisphosphate (InsP3 or IP3). GPR120 activation can also trigger intracellular signaling via recruitment of β-Arrestin. In the present method, agonist-induced activation of the human GPR120 receptor is monitored through the use of PathHunter CHO-K1 GPR120 β-Arrestin Cell Line engineered by DiscoveRx, as detailed below. The cell lines are designed to co-express both the ProLink/Enzyme Donor (PK)-tagged GPCR and the Enzyme […] (EA)-tagged Beta-Arrestin fusion proteins. Upon GPR120 receptor stimulation/activation, the EA-tagged β-Arrestin portion is translocated to the tagged receptor, where the two enzyme fragments are brought within close proximity. Under these conditions, these fragments can interact and form an active Beta-gal enzyme complex through Enzyme Fragment Complementation (EFC). This active Beta-gal complex can enzymatically hydrolyse the substrate to produce a detectable light signal; therefore, activation as a function of agonist concentration can be expressed as an EC50 value to determine relative compound activities. This in vitro assay therefore serves to assess compound agonist activity of the GPR120.
In Procedure β-arrestin A, the cell used were PathHunter CHO-K1 GPR120 β-Arrestin Cell Line, expressing the long form of human GPR120 (Genbank accession number NM_181745), with 3000 cells per well.
The selected CHO-K1 GPR120 β-Arrestin cells were cultured in Ham's F12 media supplemented with 10% fetal bovine serum (FBS), 1% Glutamine, 1×p/s, 800 μg/ml G418 and 300 μg/ml Hygromycin B (for selection). Cell stocks were maintained and grown in a sub-confluent state using standard cell culture procedures. The day before the experiment, the cells were harvested with non-enzymatic cell dissociation buffer and re-suspended in complete growth media at the desired concentration. A Corning 384-plate was then seeded with the proper number of cells in a volume of 25 μL, per well. The seeded plates were incubated overnight at 37° C.
On the day of the experiment, the Assay Buffer containing (a) HBSS with Ca^++ and Mg^++, (b) 20 mM HEPES, and (c) 0.1% BSA stabilizer (pH 7.4) was prepared. The growth medium was gently removed from the cell plates and 20 μL of Assay Buffer added to each well. The plate was then incubated at 37° C. for 60 mins. Test compounds were serially diluted in Assay Buffer to desired concentrations (more particularly, to one or more of the following μM concentrations: 25 μM, 12.5 μM, 6.25 μM, 3.125 μM, 1.562 μM, 0.781 μM, 0.391 μM, 0.195 μM, 0.098 μM, 0.049 μM, 0.024 μM, 0.012 μM). Five μl of compound dilution was then added to each well and the plate incubated at 37° C. for 90 mins. The detection reagents were prepared according to the manufacture's instruction. Twelve μL of the detection reagents were added to each well and the plate incubated at room temperature for 60 mins.
The plates were read on an EnVision instrument, using Protocol name: Luminescence, Plate type: 384 Costar, Measurement height: 3 mm, Measurement time: 1 s, Aperture: 384 Plate aperture. The % activity relative to the positive control was calculated using the following equation:
The % Activity values were plotted versus the concentration of test compound and fitted to a sigmoidal dose-response curve with a Hill slope=1 (fixed value) using nonlinear regression with GraphPad Prism 5.0 to calculate the EC50 values. The Fitting Equation was: Y=Bottom+(Top−Bottom)/(1+10^((LogEC50−X)*HillSlope)), where X is the log of the concentration and Y is the response.

In assay [2] the target is T2, Human GPR120 short form (Homo sapiens, UniProt Q5NUL3).
T2 construct: expressed in transfected cells
T2 sequence (Q5NUL3 1-361): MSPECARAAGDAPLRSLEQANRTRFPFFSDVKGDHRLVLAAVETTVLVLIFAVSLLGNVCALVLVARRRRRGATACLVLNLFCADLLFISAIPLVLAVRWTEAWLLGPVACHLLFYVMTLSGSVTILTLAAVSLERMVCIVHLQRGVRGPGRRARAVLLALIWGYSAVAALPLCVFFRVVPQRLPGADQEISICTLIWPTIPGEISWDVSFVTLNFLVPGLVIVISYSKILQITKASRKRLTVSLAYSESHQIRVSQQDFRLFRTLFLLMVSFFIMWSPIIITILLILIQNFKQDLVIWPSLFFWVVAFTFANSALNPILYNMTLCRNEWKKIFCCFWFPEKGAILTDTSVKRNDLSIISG
In words: Human GPR120 calcium flux assay, Procedure Calcium A. The settings on record: HEK-293 cells expressing human GPR120 short form, 2500 cells/well, FLIPR. The source says:
(§1) This in vitro assay serves to assess test compound agonist activity against the short splice variant (SVS with Accession number NM_001195755.1 confirmed by sequencing data) of the GPR120 receptor. The Human Short splice variant #2 (NM_001195755.1) is missing an in-frame coding exon compared to variant 1 (the Human Long splice variant NM_181745.3), resulting in a shorter isoform (GPR120-S) lacking a 16 aa protein segment compared to isoform GPR120-L. The assay platform utilizes HEK-293 cells stably transfected to express the Human GPR120 short form. These cells are first loaded with the Ca^+2 sensitive dye, Fluo-4 NW. Upon stimulation, intracellular released Ca^+2 can bind to the dye and alter its fluorescence intensity. This increase in fluorescence signal, and thus the flux in intracellular [Ca^2+], is detected and quantitated by fluorescence imaging using a FLIPR reader. The effect of the agonist is measured as a function of concentration and used to calculate an EC50 based upon a response curve.
In this procedure 2500 cells/well were employed.
(§2) A Human GPR120 clone (Genbank accession number NM_001195755.1) was placed into the pcDNA3.1 mammalian expression vector carrying the neomycin resistance gene. A stable mammalian cell was generated by placing the above clone into a HEK293 background. Clonal cells responding to long chain fatty acids had expression levels of GPR120 confirmed by RT-qPCR. Human HEK-GPR120 cells were cultured in Dulbecco's Modified Eagle's Medium (DMEM)/F12 medium supplemented with 10% fetal bovine serum (FBS), 1% L-Glutamine and 1% penicillin/streptomycin and 0.5 mg/ml G-418. Cells were split 2 times a week to keep the cells in the log-phase growth.
(§3) In preparation for the assay, HEK cells stably transfected with Human GPR120 (2.5K cells per well in 25 uL growth medium) were seeded into 384-well plates and then incubated overnight (37° C., 5% CO2). The next day, the media was changed to 20 μl assay buffer and the cell starved for 1 h at 37° C. The dye loading solution (2× dye) was prepared using 10 ml assay buffer, 100 μl of 250 mM probenecid, 1 bottle of Component A, and 20 μl of dye in DMSO. Twenty μl of the 2× dye loading buffer was then added to each well. The plates were incubated at 37° C. for 30 min, then at room temperature for an additional 15 minutes, before performing the assay on FLIPR.
(§4) Test compounds were prepared in assay buffer (2 μl of test compound+198 μl assay buffer, final DMSO in assay plate is 0.2%) at the desired concentration, more particularly at 100 μM, 50 μM, 25 μM, 12.5 μM, 6.25 μM, 3.125 μM, 1.562 μM, 0.781 μM, 0.391 μM, 0.195 μM, 0.098 μM, 0.049 μM, 0.024 μM and 0.012 μM.
(§5) The assay was performed on a FLIPR plate reader using the following parameters. Baseline was read for 10 seconds at 1 sec intervals. The program was set to transfer 10 μL of ligand from compound plate to cell plate after baseline reading. Aspiration was executed at: 10 μl/sec speed, 4.6 μl height; Dispensing was executed at: 30 μl/sec speed, 45 μl height. After compound addition, each well was read for 300 sec, with measurements collected at 1 sec intervals.
(§6) The kinetic data from the FLIPR was based upon a 5 minute window for data collection. The fluorescence of each sample well was used for individual calculations of a normalized RFU value, which was defined as maximum response minus the minimum response. The normalized fluorescence reading (RFU) was calculated as follows: RFU=Fmax−Fmin
(§7) The data were fitted to a sigmoidal dose-response curve with a variable Hill slope (<2) using nonlinear regression with GraphPad Prism 5.0 to calculate the EC50 values. The Fitting Equation was: Y=Bottom+(Top−Bottom)/(1+10^((LogEC50−X)*HillSlope)), where X is the log of the concentration and Y is the response.
A general note: Calcium flux is commonly read through the fluorescence of an indicator in the cells.

The target of assay [3] is T2, Human GPR120 short form. In words: Human GPR120 calcium flux assay, Procedure Calcium B. The settings on record: HEK-293 cells expressing human GPR120 short form, 4200 cells/well, FLIPR.
From the text: as §1
In this procedure 4200 cells/well were employed.
as §2, §3, §4, §5, §6, §7

T1 sequence (Q5NUL3 1-377 isoform Q5NUL3-1): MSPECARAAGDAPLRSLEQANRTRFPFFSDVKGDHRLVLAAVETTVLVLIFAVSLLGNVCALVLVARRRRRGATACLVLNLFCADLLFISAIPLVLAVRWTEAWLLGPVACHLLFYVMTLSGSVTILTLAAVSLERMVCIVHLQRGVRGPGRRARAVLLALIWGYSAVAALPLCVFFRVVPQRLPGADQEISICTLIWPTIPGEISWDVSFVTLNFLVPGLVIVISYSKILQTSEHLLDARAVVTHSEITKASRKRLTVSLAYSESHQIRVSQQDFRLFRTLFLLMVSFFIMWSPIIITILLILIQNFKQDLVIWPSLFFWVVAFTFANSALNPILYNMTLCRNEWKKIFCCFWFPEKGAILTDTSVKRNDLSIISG
T1 sequence (P32121 whole entry partner): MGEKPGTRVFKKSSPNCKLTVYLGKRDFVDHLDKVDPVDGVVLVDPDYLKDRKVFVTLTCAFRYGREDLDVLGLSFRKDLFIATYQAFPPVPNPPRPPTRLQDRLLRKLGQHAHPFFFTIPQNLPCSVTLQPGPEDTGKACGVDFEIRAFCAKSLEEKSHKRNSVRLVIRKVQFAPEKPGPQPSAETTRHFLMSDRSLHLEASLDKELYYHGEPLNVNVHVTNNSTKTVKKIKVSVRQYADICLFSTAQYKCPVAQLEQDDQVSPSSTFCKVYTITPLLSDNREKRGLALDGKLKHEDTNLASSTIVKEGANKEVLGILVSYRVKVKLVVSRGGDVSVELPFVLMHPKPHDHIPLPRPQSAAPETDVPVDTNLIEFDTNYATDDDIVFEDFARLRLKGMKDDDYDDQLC

With `OCCCc1ccc(OCc2c(Br)ccn2-c2ccc(Cl)cc2)c(F)c1F` [Compound 5, 3-(4-{[3-Bromo-1-(4-chlorophenyl)-1H-pyrrol-2-yl]methoxy}-2,3-difluorophenyl)propan-1-ol], the EC50 in assay [1] came to 0.13 µM; at Human GPR120 short form [2], 0.435 µM; on Human GPR120 short form [3], 0.368 µM.
Regarding `O=C(O)CCc1ccc(OCc2c(Br)ccn2-c2ccc(Cl)cc2)c(F)c1F` [Compound 6, 3-(4-{[3-Bromo-1-(4-chlorophenyl)-1H-pyrrol-2-yl]methoxy}-2,3-difluorophenyl)propanoic acid], the 50% effective concentration (EC50) in assay [1] turned out to be 0.73 µM; at Human GPR120 short form [2], 0.819 µM; on Human GPR120 short form [3], 0.161 µM.
For `Cc1c(CCC(=O)O)ccc(OCc2c(Cl)ccn2-c2ccc(Cl)cc2)c1C` [Compound 8, 3-(4-{[3-Chloro-1-(4-chlorophenyl)-1H-pyrrol-2-yl]methoxy}-2,3-dimethylphenyl)propanoic acid], the concentration for a half-maximal effect (EC50) in assay [1] came to 1 µM; on Human GPR120 short form [2], 0.528 µM; on Human GPR120 short form [3], 0.173 µM.
In the same order, the values of `OCCCc1ccc(OCc2c(Cl)ccn2-c2ccc(Cl)cc2)c(F)c1F` [Compound 10, 3-(4-{[3-Chloro-1-(4-chlorophenyl)-1H-pyrrol-2-yl]methoxy}-2,3-difluorophenyl)propan-1-ol] are 0.258 µM, 1.09 µM and 0.74 µM.
Turning to `O=C(O)CCc1ccc(OCc2c(Cl)ccn2-c2ccc(Cl)cc2)c(F)c1F` [Compound 11, 3-(4-{[3-chloro-1-(4-chlorophenyl)-1H-pyrrol-2-yl]methoxy}-2,3-difluorophenyl)propanoic acid], the concentration giving a half-maximal response (EC50) amounted to 0.859 µM in assay [1], 0.934 µM at Human GPR120 short form [2] and 0.161 µM at Human GPR120 short form [3].
For `Cc1c(CCC(=O)O)ccc(OCc2c(C(F)(F)F)ccn2-c2ccc(Cl)cc2)c1C` [Compound 15, 3-(4-{[1-(4-Chlorophenyl)-3-(trifluoromethyl)-1H-pyrrol-2-yl]methoxy}-2,3-dimethylphenyl)propanoic acid], the half-maximal effective concentration (EC50) in assay [1] was found to be 1.1 µM; on Human GPR120 short form [2], 0.993 µM; at Human GPR120 short form [3], 0.088 µM.
Regarding `O=C(O)CCc1ccc(OCc2c(C(F)(F)F)ccn2-c2ccc(Cl)cc2)c(F)c1F` [Compound 16, 3-(4-{[1-(4-Chlorophenyl)-3-(trifluoromethyl)-1H-pyrrol-2-yl]methoxy}-2,3-difluorophenyl)propanoic acid], the EC50 amounted to 0.639 µM in assay [1], 0.836 µM at Human GPR120 short form [2] and 0.091 µM on Human GPR120 short form [3].
In the same order, the values of `Cc1c(CCCO)ccc(OCc2c(C(F)(F)F)ccn2-c2ccc(Cl)cc2)c1C` [Compound 17, 3-(4-{[1-(4-Chlorophenyl)-3-(trifluoromethyl)-1H-pyrrol-2-yl]methoxy}-2,3-dimethylphenyl)propan-1-ol] are 0.238 µM, 1.09 µM and 0.533 µM.
For `Cc1c(CCCO)ccc(OCc2c(C(F)(F)F)ccn2-c2ccccc2)c1C` [Compound 19, 3-(2,3-Dimethyl-4-{[1-phenyl-3-(trifluoromethyl)-1H-pyrrol-2-yl]methoxy}phenyl)propan-1-ol], in that order: 0.283 µM, 0.843 µM and 0.261 µM.
For `OCCCc1ccc(OCc2c(C(F)(F)F)ccn2-c2ccc(Br)cc2)c(F)c1F` [Compound 21, 3-(4-{[1-(4-Bromophenyl)-3-(trifluoromethyl)-1H-pyrrol-2-yl]methoxy}-2,3-difluorophenyl)propan-1-ol], the values for the concentration giving a half-maximal response (EC50) (in assay [1]; on Human GPR120 short form [2]; on Human GPR120 short form [3]) were 0.087 µM, 0.709 µM and 0.282 µM, respectively.
With `COc1ccc(-n2ccc(C(F)(F)F)c2COc2ccc(CCC(=O)O)c(C)c2C)cc1` [Compound 24, 3-(4-{[1-(4-Methoxyphenyl)-3-(trifluoromethyl)-1H-pyrrol-2-yl]methoxy}-2,3-dimethylphenyl)propanoic acid], the EC50 in assay [1] worked out at 0.308 µM; on Human GPR120 short form [2], 0.931 µM; at Human GPR120 short form [3], 0.227 µM.

These data come from patent publication US8912227B1, “Bicyclic pyrrole derivatives useful as agonists of GPR120” (Janssen Pharmaceutica NV, priority 2014, dated 2014).
